Columns and labels:
[1] = tested on: mammary epithelial cells; assay: γ-irradiation induced mammary epithelial cell apoptosis in vivo (active Caspase 3); parameters: species or system mouse; settings: MPA pellet, 5 Gray
Method: a, Western blotting for phosphorylated (P) IKKα, total IKKα, phosphorylated (P) p65 NFκB, total p65 NFκB, phosphorylated (P) IκBα, and total IκBα in isolated primary mouse mammary gland epithelial cells (MECs) in response to RANKL stimulation (1 μg/ml). β-actin is shown as loading control. b, Western blotting for IKKα, IKKβ, IKKγ, phosphorylated (P) p65 NFκB, total p65 NFκB, phosphorylated (P) IκBα, and total IκBα in pooled late stage mammary adenocarconimas (n=4 for each lane) that developed in control, RANK^Δmam and IKKΔ^Δmam females. β-actin is shown as loading control c, Expression of RANK, CyclinD1, and p21 mRNA in late stage mammary adenocacinomas that developed in control, RANK^Δmam, and IKKα^Δmam females. Expression was determined by qRT-PCR. […] Apoptosis was detected by immunostaining for active Caspase 3. f, Apoptotic nuclei of epithelial cells (arrows) are shown for representative mammary gland sections. Magnifications×40. g, Quantification of mammary epithelial apoptosis. A minimum of 5000 nuclei was counted for each mouse. […]
For measurement of cell cycle arrest and apoptosis primary mouse mammary epithelial cells and SKBR3 human breast cancer cells were seeded at a cell-density of 100000 cells/well in a 6-well plate and allowed to grow for 24 hours. […] Cell cycle arrest and numbers of dead cells were determined using propidium iodine staining. […]

[2] = tested on: NFκB pathway / CyclinD1; assay: NFκB pathway activation and CyclinD1 expression in mammary epithelial cells after MPA in vivo; parameters: species or system mouse; settings: three day MPA treatment, control females
Description: a, Activation of the NFκB pathway and CyclinD1 expression by MPA. Nulliparous RANK^Δmam and littermate control females were s.c. implanted with slow-release MPA pellets or treated with sham surgery. a, In situ immunostaining to detect phosphorylated (P) IκBα in mammary epithelial cells of RANK^Δmam and littermate control females after 3 d MPA treatment. b, Western blot analysis of CyclinD1 and RANKL in isolated mammary epithelial cells from RANK^Δmam and littermate control females after 3 d MPA treatment. Recombinant, murine sRANKL protein is shown for molecular size comparison. β-actin is shown as a loading control.
The human epithelial breast tumor cell line SKBR3 and primary non-transformed mouse mammary epithelial cells were left untreated or stimulated with recombinant murine RANKL^ref. 9. Adenocarcinomas were isolated from control and mutant mice and total protein lysates prepared. Western blotting was carried out using standard protocols. Briefly, blots were blocked with 5% BSA in 1×TBS 0.1% Tween-20 (TBST) for 1 hour and incubated with primary antibody overnight at 4° C. (diluted in TBST according to the manufactures protocol). […]

CC(=O)O[C@]1(C(C)=O)CC[C@H]2[C@@H]3C[C@H](C)C4=CC(=O)CC[C@]4(C)[C@H]3CC[C@@]21C [MPA, medroxyprogesterone acetate]
protective effect of MPA on γ-irradiation-induced cell death ([1]; RANKΔmam females): abrogated the protective effects of MPA | γ-irradiation-induced apoptosis of mammary epithelial cells in vivo ([1]; control females): protected from γ-irradiation-induced apoptosis | CyclinD1 protein expression in mammary epithelial cells [2]: induction of CyclinD1 protein expression | nuclear phosphorylated IκBα in mammary epithelial cells [2]: nuclear accumulation of phosphorylated IκBα
